Measurements reported in patent US6887997B2, “9H-imidazo[1,2-a]purin-9-one compounds” (Yung Shin Pharmaceutical Ind. Co., Ltd., priority 2001, dated 2005).

Work on `O=c1c2ncn(COCCO)c2nc2[nH]c(-c3ccc(Cl)s3)cn12` [compound 2, 3-(2-Hydroxy-ethoxymethyl)-6-(5-chloro-thiophen-2-yl)-3,5-dihydro-1,3,4,5,7a-pentaaza-s-indacen-8-one] yielded a melting point of 226 to 228 °C.
